According to patent US8853452B2, “Compounds, their syntheses, compositions, and methods to treat cancer” (The Administrators of the Tulane Educational Fund, priority 2009, dated 2014):

system: MCF-7TN-R cells; experiment: Clonogenic survival assay; assay type: cell-based, Human; conditions: Homo sapiens, 240 h, Table 2; 0.1 μM-20 μM for 10 days; read-out: MCF-7-TNR (IC50), clonogenic survival
Description: (§1) Human cancer cell lines derived from breast, MCF-7, endocrine-resistant MDA-MB-231, and chemoresistant MCF-7TN-R were cultured in 75 cm^2 culture flasks in DMEM (Invitrogen, Co.) supplemented with 10% FBS (Life Technologies, Inc., Gaithersburg, Md.), basic minimum MEM essential (50×, Invitrogen Co.) and MEM non-essential (100×, Invitrogen, Co.) amino acids, sodium pyruvate (100× Invitrogen Co.), antimicotic-antibiotic (10,000 U/mL penicillin G sodium; 10,000 μg/mL streptomycin sulphate; 25 μg/mL amphotericin B as Fungizone®), and human recombinant insulin (4 mg/mL Invitrogen Co). Culture flasks were maintained in a tissue culture incubator in a humidified atmosphere of 5% CO2 and 95% air at 37° C.
(§2) MCF-7, MDA-MB-231, or MCF-7TN-R cells were plated in 6-well plates at 1000 cells per well. Twenty-four hours later, cells were treated with varying concentrations of the compound and then monitored microscopically for colony growth. Ten days later the cells were fixed with 3% glutaraldehyde. Following fixation for 15 min, the plates were washed and stained with a 0.4% solution of crystal violet in 20% methanol for 30 min, washed with PBS, and air-dried. Colonies of 30 cells were counted as positive. Results are normalized to percent clonogenic survival from untreated control cells. Statistical analysis of IC50 values were calculated from concentration-response curves using GraphPad Prism 5.0 (Graphpad Software, San Diego, Calif.), using with the equation: Y=Bottom+(Top−bottom)/1+10 Log EC50−X.
(§3) Compounds II-1, II-2, II-3, II-4, II-5, and II-6 were compared for their inhibitory effect on breast cancer clonogenic survival. Cells were treated with varying concentration of compound, ranging from 0.1 μM-20 μM for 10 days. […] At endpoint, cell colonies were fixed, stained and recorded as percent vehicle control.

Compound	IC50 [µM]
CCCCCCCCCCCCCCNC(=O)[C@H](CO)NC(=O)c1cc(OC)cc(OC)c1 [II-5, (S)—N-(3-hydroxy-1-oxo-1-(tetradecylamino)propan-2-yl)-3,5-dimethoxybenzamide]	15
CCCCCCCCCCCCCCNC(=O)[C@H](CO)NC(C)=O [II-6, (S)-2-acetamido-3-hydroxy-N-tetradecylpropanamide]	52.7
CCCCCCCCCCCCCCNC(=O)[C@H](CO)NC(=O)C(C)(C)C [II-4, (S)-3-hydroxy-2-pivalamido-N-tetradecylpropanamide]	11.1

system: MDA-MB-231 cells; experiment: Clonogenic survival assay; assay type: cell-based, Human; conditions: Homo sapiens, MDA-MB-231, 240 h, Table 2; 0.1 μM-20 μM for 10 days; read-out: MDA-MB-231 (IC50), clonogenic survival
Description: as §1, §2, §3

Compound	IC50 [µM]
CCCCCCCCCCCCCCNC(=O)[C@H](CO)NC(=O)c1cc(OC)cc(OC)c1 [II-5, (S)—N-(3-hydroxy-1-oxo-1-(tetradecylamino)propan-2-yl)-3,5-dimethoxybenzamide]	6.6
CCCCCCCCCCCCCCNC(=O)[C@H](CO)NC(C)=O [II-6, (S)-2-acetamido-3-hydroxy-N-tetradecylpropanamide]	75.1
CCCCCCCCCCCCCCNC(=O)[C@H](CO)NC(=O)C(C)(C)C [II-4, (S)-3-hydroxy-2-pivalamido-N-tetradecylpropanamide]	6.1

system: MCF-7 cells; experiment: Clonogenic survival assay; assay type: cell-based, Human; conditions: Homo sapiens, MCF7, 240 h, Table 2; 0.1 μM-20 μM for 10 days; read-out: MCF-7 (IC50), clonogenic survival
Description: as §1, §2, §3

Compound	IC50 [µM]
CCCCCCCCCCCCCCNC(=O)[C@H](CO)NC(=O)c1cc(OC)cc(OC)c1 [II-5, (S)—N-(3-hydroxy-1-oxo-1-(tetradecylamino)propan-2-yl)-3,5-dimethoxybenzamide]	11.2
CCCCCCCCCCCCCCNC(=O)[C@H](CO)NC(C)=O [II-6, (S)-2-acetamido-3-hydroxy-N-tetradecylpropanamide]	44.7
CCCCCCCCCCCCCCNC(=O)[C@H](CO)NC(=O)C(C)(C)C [II-4, (S)-3-hydroxy-2-pivalamido-N-tetradecylpropanamide]	6.7

system: not listed separately; experiment: Log K (structure-activity parameter); assay type: physicochemical; conditions: not given

Compound	Log K
CCCCCCCCCCCCCCNC(=O)[C@H](CO)N=Cc1ccccc1O [II-21, (S)-2-(2-hydroxybenzylideneamino)-3-hydroxy-N-tetradecylpropanamide]	0.89
CCCCCCCCCCCCCCNC(=O)[C@H](CO)N=Cc1ccc(C)cc1 [II-10, (S)-2-(4-methylbenzylideneamino)-3-hydroxy-N-tetradecylpropanamide]	1.09
CCCCCCCCCCCCCCNC(=O)[C@H](CO)N=Cc1ccccc1OC [II-18, (S)-2-(2-methoxybenzylideneamino)-3-hydroxy-N-tetradecylpropanamide]	0.89

system: MCF-7TN-R cells; experiment: Proliferation assay; assay type: cell-based; conditions: Homo sapiens; Table 3; read-out: IC50 (μM), anti-proliferative in MCF-7TN-R cells
Description: The ability of compound II-3 to block proliferation as an anti-survival mechanism in addition to apoptosis was determined by measuring anti-proliferative effects.
Nineteen compounds were synthesized using fifteen benzaldehydes as starting material. […] These were tested as potential anti-proliferative agents in MCF-7TN-R cells, and the structure-activity relationships were studied using several parameters. […] In compounds containing a methyl group, a significant increase of the PAC (C) in o-substituted compound was detected, which may account for the increased anti-proliferation activity. Ortho-substituted analogs with electron withdrawing groups by induction can have beneficial effects, and PAC (C) can be a useful predictor of the structural property of the molecule.

Compound	IC50 [µM]
CCCCCCCCCCCCCCNC(=O)[C@H](CO)N=Cc1ccccc1O [II-21, (S)-2-(2-hydroxybenzylideneamino)-3-hydroxy-N-tetradecylpropanamide]	19
CCCCCCCCCCCCCCNC(=O)[C@H](CO)N=Cc1ccc(C)cc1 [II-10, (S)-2-(4-methylbenzylideneamino)-3-hydroxy-N-tetradecylpropanamide]	102
CCCCCCCCCCCCCCNC(=O)[C@H](CO)N=Cc1ccccc1OC [II-18, (S)-2-(2-methoxybenzylideneamino)-3-hydroxy-N-tetradecylpropanamide]	12.5
